How the values were obtained:
[1] = test system: human SKM-1 acute myeloid leukemia cells; assay: SKM-1 antiproliferation cell-based assay (ATPlite); settings: Homo sapiens, SKM-1, 96 h, SKM-1 antiproliferation assay, 4 days, Table C2
Summary of the method: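 Log-phase cells in RPMI 1640/15% FBS were seeded at 34722 cells/mL and exposed for 4 days to nine-concentration DMSO serial dilutions in triplicate. Viability was read as ATP luminescence (ATPlite 1step), and IC50 values came from variable-slope non-linear regression.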

[2] = molecular target: T1, human BRD4 bromodomain II (Homo sapiens, UniProt O60885); assay: Bromodomain binding assay (AlphaScreen), BRD4 BDII; settings: AlphaScreen assay, Table C2; read-out: BRD4 BDII IC50
T1 construct: human BRD4 bromodomain II [based on Genbank NM_058243, residues 349-460]; host or cells: E. coli
Summary of the method: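 AlphaScreen competition with biotinylated H4 peptide (aa 1-21, K5/K8/K12/K16Ac), using nickel-chelate acceptor and streptavidin donor beads. Targets were His6-BRD4 BDI (44-170) or BDII (349-460), with a 30 min compound preincubation over a 10-point 3-fold series. IC50 was fitted from percentage peptide binding.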

Structure (SMILES)	GI50 [1] [nM]	IC50 [2] [nM]
CN1CC2(C1)CN(c1cc(-c3cc(F)cc(-c4ccc(-n5ccn(C)c5=O)c(Cl)c4)c3O)ccn1)C2 [Example 489, 1-(3-chloro-5′-fluoro-2′-hydroxy-3′-(2-(6-methyl-2,6-diazaspiro[3.3]heptan-2-yl)pyridin-4-yl)-[1,1′-biphenyl]-4-yl)-3-methyl-1H-imidazol-2(3H)-one]	0.3 to 30	1 to 10
Cn1ccn(-c2ccc(-c3cc(F)cc(-c4ccnc(N5C[C@@H](N)[C@H](O)C5)c4)c3O)cc2Cl)c1=O [Example 490, 1-(3′-(2-((3R,4R)-3-amino-4-hydroxypyrrolidin-1-yl)pyridin-4-yl)-3-chloro-5′-fluoro-2′-hydroxy-[1,1′-biphenyl]-4-yl)-3-methyl-1H-imidazol-2(3H)-one]	0.3 to 30	0.01 to 1
Cn1ccn(-c2ccc(-c3cc(F)cc(-c4cncc(N5C[C@@H](N)[C@H](O)C5)c4)c3O)cc2Cl)c1=O [Example 491, 1-(3′-(5-((3R,4R)-3-amino-4-hydroxypyrrolidin-1-yl)pyridin-3-yl)-3-chloro-5′-fluoro-2′-hydroxy-[1,1′-biphenyl]-4-yl)-3-methyl-1H-imidazol-2(3H)-one]	30 to 300	0.01 to 1
[2H]C([2H])([2H])n1ccn(-c2ccc(-c3cc(F)cc(-c4ccnc(N5CC6(CNC6)C5)c4)c3O)cc2Cl)c1=O [Example 492, 1-(3′-(2-(2,6-diazaspiro[3.3]heptan-2-yl)pyridin-4-yl)-3-chloro-5′-fluoro-2′-hydroxy-[1,1′-biphenyl]-4-yl)-3-deuteromethyl-1H-imidazol-2(3H)-one]	30 to 300	1 to 10
C[C@@H]1CN(c2cc(-c3cc(F)cc(-c4ccc(-n5ccn(C)c5=O)c(Cl)c4)c3O)ccn2)CCN1C [Example 493, (R)-1-(3-chloro-3′-(2-(3,4-dimethylpiperazin-1-yl)pyridin-4-yl)-5′-fluoro-2′-hydroxy-[1,1′-biphenyl]-4-yl)-3-methyl-1H-imidazol-2(3H)-one]	0.3 to 30	0.01 to 1
CNCc1n[nH]c2ccc(-c3cc(F)cc(-c4ccc(-n5ccn(C)c5=O)c(Cl)c4)c3O)cc12 [Example 494, 1-(3-chloro-5′-fluoro-2′-hydroxy-3′-(3-((methylamino)methyl)-1H-indazol-5-yl)-[1,1′-biphenyl]-4-yl)-3-methyl-1H-imidazol-2(3H)-one]	30 to 300	1 to 10
Cn1ccn(-c2ccc(-c3cc(F)cc(-c4cncc(N5CC[C@@H](O)[C@H](N)C5)c4)c3O)cc2Cl)c1=O [Example 495, 1-(3′-(5-((3R,4R)-3-amino-4-hydroxypiperidin-1-yl)pyridin-3-yl)-3-chloro-5′-fluoro-2′-hydroxy-[1,1′-biphenyl]-4-yl)-3-methyl-1H-imidazol-2(3H)-one]	30 to 300	1 to 10
Cc1cccn(-c2ccc(-c3cc(F)cc(-c4ccnc(N5CCNCC5)c4)c3O)cc2Cl)c1=O [Example 496, 1-(3-chloro-5′-fluoro-2′-hydroxy-3′-(2-(piperazin-1-yl)pyridin-4-yl)-[1,1′-biphenyl]-4-yl)-^3-methylpyridin-2(1H)-one]	≥ 3000	> 100
Cn1ccn(-c2ccc(-c3cc(F)cc(-c4ccnc(N5CCC[C@H](CN)C5)c4)c3O)cc2Cl)c1=O [Example 497, (R)-1-(3′-(2-(3-(aminomethyl)piperidin-1-yl)pyridin-4-yl)-3-chloro-5′-fluoro-2′-hydroxy-[1,1′-biphenyl]-4-yl)-3-methyl-1H-imidazol-2(3H)-one]	300 to 3000	1 to 10
Cc1cc(-c2ccnc(N3CC[C@H](N)C3)c2)c(O)c(-c2ccc(-n3ccn(C)c3=O)c(Cl)c2)c1 [Example 498, (S)-1-(3′-(2-(3-aminopyrrolidin-1-yl)pyridin-4-yl)-3-chloro-2′-hydroxy-5′-methyl-[1,1′-biphenyl]-4-yl)-3-methyl-1H-imidazol-2(3H)-one]	0.3 to 30	0.01 to 1
Cn1cnn(-c2ccc(-c3cc(F)cc(-c4ccnc(N5CCNCC5)c4)c3O)cc2Cl)c1=O [Example 499, 1-(3-chloro-5′-fluoro-2′-hydroxy-3′-(2-(piperazin-1-yl)pyridin-4-yl)-[1,1′-biphenyl]-4-yl)-^4-methyl-1H-1,2,4-triazol-5(4H)-one]	30 to 300	1 to 10
Cc1cc(-c2ccnc(N3CCN[C@H](C)C3)c2)c(O)c(-c2ccc(-n3ccn(C)c3=O)c(Cl)c2)c1 [Example 500, (R)-1-(3-chloro-2′-hydroxy-5′-methyl-3′-(2-(3-methylpiperazin-1-yl)pyridin-4-yl)-[1,1′-biphenyl]-4-yl)-3-methyl-1H-imidazol-2(3H)-one]	0.3 to 30	1 to 10
Cn1ccn(-c2ccc(-c3cc(F)cc(-c4ccnc(N5CC6CCC(C5)N6)c4)c3O)cc2Cl)c1=O [Example 511, 1-(3′-(2-(3,8-diazabicyclo[3.2.1]octan-3-yl)pyridin-4-yl)-3-chloro-5′-fluoro-2′-hydroxy-[1,1′-biphenyl]-4-yl)-3-methyl-1H-imidazol-2(3H)-one]	0.3 to 30	1 to 10
Cn1ccn(-c2ccc(-c3cc(F)cc(-c4cncc(N5CC6CCC(C5)N6)c4)c3O)cc2Cl)c1=O [Example 512, 1-(3′-(5-(3,8-diazabicyclo[3.2.1]octan-3-yl)pyridin-3-yl)-3-chloro-5′-fluoro-2′-hydroxy-[1,1′-biphenyl]-4-yl)-3-methyl-1H-imidazol-2(3H)-one]	0.3 to 30	1 to 10
CN1C2CCC1CN(c1cc(-c3cc(F)cc(-c4ccc(-n5ccn(C)c5=O)c(Cl)c4)c3O)ccn1)C2 [Example 513, 1-(3-chloro-5′-fluoro-2′-hydroxy-3′-(2-(8-methyl-3,8-diazabicyclo[3.2.1]octan-3-yl)pyridin-4-yl)-[1,1′-biphenyl]-4-yl)-3-methyl-1H-imidazol-2(3H)-one]	0.3 to 30	1 to 10

Now from value to compound:

GI50 [1] [nM]	IC50 [2] [nM]	Structure (SMILES)
0.3 to 30	0.01 to 1	CN(C)[C@H]1CCCN(c2cncc(-c3cc(F)cc(-c4ccc(-n5ccn(C)c5=O)c(Cl)c4)c3O)c2)C1 [Example 501, (S)-1-(3-chloro-3′-(5-(3-(dimethylamino)piperidin-1-yl)pyridin-3-yl)-5′-fluoro-2′-hydroxy-[1,1′-biphenyl]-4-yl)-3-methyl-1H-imidazol-2(3H)-one]
≥ 3000	> 100	O=c1ccccn1-c1ccc(-c2cc(F)cc(-c3ccnc(N4CCNCC4)c3)c2O)cc1Cl [Example 502, 1-(3-chloro-5′-fluoro-2′-hydroxy-3′-(2-(piperazin-1-yl)pyridin-4-yl)-[1,1′-biphenyl]-4-yl)pyridin-2(1H)-one]
0.3 to 30	1 to 10	CC(=O)Nc1cc(-c2cc(F)cc(-c3ccc(-n4ccn(C)c4=O)c(Cl)c3)c2O)cc(N2CC[C@H](N)C2)n1 [Example 503, (S)-N-(6-(3-aminopyrrolidin-1-yl)-4-(3′-chloro-5-fluoro-2-hydroxy-4′-(3-methyl-2-oxo-2,3-dihydro-1H-imidazol-1-yl)-[1,1′-biphenyl]-3-yl)pyridin-2-yl)acetamide]
0.3 to 30	1 to 10	Cn1ccn(-c2ccc(-c3cc(F)cc(-c4cc(N5CCNCC5)c5nc[nH]c5c4)c3O)cc2Cl)c1=O [Example 504, 1-(3-chloro-5′-fluoro-2′-hydroxy-3′-(4-(piperazin-1-yl)-1H-benzo[d]imidazol-6-yl)-[1,1′-biphenyl]-4-yl)-3-methyl-1H-imidazol-2(3H)-one]
30 to 300	1 to 10	O=c1occn1-c1ccc(-c2cc(F)cc(-c3ccnc(N4CCNCC4)c3)c2O)cc1Cl [Example 505, 3-(3-chloro-5′-fluoro-2′-hydroxy-3′-(2-(piperazin-1-yl)pyridin-4-yl)-[1,1′-biphenyl]-4-yl)oxazol-2(3H)-one]
300 to 3000	10 to 100	CO[C@H]1COC(=O)N1c1ccc(-c2cc(F)cc(-c3ccnc(N4CCNCC4)c3)c2O)cc1Cl [Example 506, (S)-3-(3-chloro-5′-fluoro-2′-hydroxy-3′-(2-(piperazin-1-yl)pyridin-4-yl)-[1,1′-biphenyl]-4-yl)-4-methoxyoxazolidin-2-one]
300 to 3000	10 to 100	CO[C@@H]1COC(=O)N1c1ccc(-c2cc(F)cc(-c3ccnc(N4CCNCC4)c3)c2O)cc1Cl [Example 507, (R)-3-(3-chloro-5′-fluoro-2′-hydroxy-3′-(2-(piperazin-1-yl)pyridin-4-yl)-[1,1′-biphenyl]-4-yl)-4-methoxyoxazolidin-2-one]
0.3 to 30	1 to 10	Cc1cc(-c2cncc(N3CCN[C@H](C)C3)c2)c(O)c(-c2ccc(-n3ccn(C)c3=O)c(Cl)c2)c1 [Example 508, (R)-1-(3-chloro-2′-hydroxy-5′-methyl-3′-(5-(3-methylpiperazin-1-yl)pyridin-3-yl)-[1,1′-biphenyl]-4-yl)-3-methyl-1H-imidazol-2(3H)-one]
0.3 to 30	1 to 10	Cc1cc(-c2cncc(N3CC[C@H](N)C3)c2)c(O)c(-c2ccc(-n3ccn(C)c3=O)c(Cl)c2)c1 [Example 509, (S)-1-(3′-(5-(3-aminopyrrolidin-1-yl)pyridin-3-yl)-3-chloro-2′-hydroxy-5′-methyl-[1,1′-biphenyl]-4-yl)-3-methyl-1H-imidazol-2(3H)-one]
30 to 300	10 to 100	Cn1ccn(-c2ccc(-c3cc(Cl)cc(-c4cncc(N5CC[C@H](N)C5)c4)c3O)cc2Cl)c1=O [Example 510, (S)-1-(3′-(5-(3-aminopyrrolidin-1-yl)pyridin-3-yl)-3,5′-dichloro-2′-hydroxy-[1,1′-biphenyl]-4-yl)-3-methyl-1H-imidazol-2(3H)-one]

Source: US20250179059A1 (The Regents of the University of California, priority 2021, published 2025)
